Here are results for eight compounds from ChEMBL document CHEMBL1130722, “Synthesis of gem-difluoro-avermectin derivatives: potent anthelmintic and anticonvulsant agents” (1998).

Holding throughout (assay type): functional
Assay [1] has as its system Haemonchus contortus. The assay can be described thus: Compound was tested for the anthelmintic efficacy by using Haemonchus contortus larval assay.
In assay [2] the test system is Artemia salina. The assay can be described thus: Compound was tested for the antiparasitic activity by using Artemia salina (brine shrimp) immobilization assay.
For assay [3], the species on record is Mus musculus. The assay can be described thus: Compound was tested for the anticonvulsant activity in pentamethylenetetrazole mouse epilepsy model.
The species named for assay [4] is Mus musculus. Description: Compound was tested for the sedative effect by using mouse rotarod test. Particulars: for minimal effective dose: read-out: MED.

One may read the ED50 as the midpoint of the dose-response relation. Low readings indicate greater potency, high ones weaker potency.

Where only a bound is given, the exact number is not on record here.

`CCC(C)[C@H]1O[C@]2(C=C[C@@H]1C)C[C@@H]1C[C@@H](C/C=C(\C)[C@@H](O[C@H]3C[C@H](OC)C(F)(F)[C@H](C)O3)[C@@H](C)/C=C/C=C3\CO[C@@H]4[C@H](O)C(C)=C[C@@H](C(=O)O1)[C@]34O)O2` (stereo partly drawn) yielded an IC100 in assay [1] of 10 ng/mL.
As to `CCC(C)[C@H]1O[C@]2(C=C[C@@H]1C)C[C@@H]1C[C@@H](C/C=C(\C)[C@@H](O[C@H]3C[C@H](OC)[C@@H](O[C@H]4C[C@H](OC)C(F)(F)[C@H](C)O4)[C@H](C)O3)[C@@H](C)/C=C/C=C3\CO[C@@H]4[C@H](O)C(C)=C[C@@H](C(=O)O1)[C@]34O)O2` (stereo partly drawn), the IC100 in assay [2] came to 5200 ng/mL; in assay [1] it was 10 ng/mL.
With `CN1C(=O)CN=C(c2ccccc2)c2cc(Cl)ccc21` [DIAZEPAM], the median effective dose (ED50) in assay [3] is 0.26 mg/kg. The minimal effective dose in assay [4] is 3 mg/kg.
In assay [1], `CCC(C)[C@H]1O[C@@]2(C[C@@H]3C[C@@H](C/C=C(\C)[C@@H](O[C@H]4C[C@H](OC)[C@@H](O[C@H]5C[C@H](OC)[C@@H](O)[C@H](C)O5)[C@H](C)O4)[C@@H](C)/C=C/C=C4\CO[C@@H]5[C@H](OC)C(C)=C[C@@H](C(=O)O3)[C@]45O)O2)CC(F)(F)[C@@H]1C` (stereo partly drawn) showed an IC100 of 10 ng/mL.
On to `CCC(C)[C@H]1O[C@]2(C=C[C@@H]1C)C[C@@H]1C[C@@H](C/C=C(\C)C(F)(F)[C@@H](C)/C=C/C=C3\CO[C@@H]4[C@H](O)C(C)=C[C@@H](C(=O)O1)[C@]34O)O2` (stereo partly drawn), for which the IC100 in assay [2] worked out at 325 ng/mL; in assay [1], 10 ng/mL.
As to `CCC(C)[C@H]1O[C@]2(C=C[C@@H]1C)C[C@@H]1C[C@@H](C/C=C(\C)[C@@H](O[C@H]3C[C@H](OC)[C@@H](O[C@H]4C[C@H](OC)[C@H](O)[C@H](C)O4)[C@H](C)O3)[C@@H](C)/C=C/C=C3\CO[C@@H]4[C@H](O)C(C)=C[C@@H](C(=O)O1)[C@]34O)O2` (stereo partly drawn), the IC100 in assay [2] came to 430 ng/mL; in assay [3] it was 28.2 ng/mL.
In the case of `CCC(C)[C@H]1O[C@@]2(C[C@@H]3C[C@@H](C/C=C(\C)[C@@H](O[C@H]4C[C@H](OC)[C@@H](O[C@H]5C[C@H](OC)[C@@H](O)[C@H](C)O5)[C@H](C)O4)[C@@H](C)/C=C/C=C4\CO[C@@H]5[C@H](O)C(C)=C[C@@H](C(=O)O3)[C@]45O)O2)CC(F)(F)[C@@H]1C` (stereo partly drawn), the IC100 in assay [2] stood at 13009 ng/mL; in assay [1] it was 10 ng/mL. The same compound registered a 50% effective dose (ED50) in assay [3] of 9 mg/kg. In addition, in assay [4], the minimal effective dose was more than 40 mg/kg.
On to IVERMECTIN, for which the IC100 in assay [2] worked out at 430 ng/mL; in assay [1] it was 10 ng/mL. In assay [3], it took a dose of 28.2 mg/kg to reach the 50% effect level (ED50). Moreover, the MED in assay [4] was more than 300 mg/kg.
